Laboratory results from the supplement of paper PMC10307832.

What was measured:
Test in all cases: relative viability (nuclei count vs DMSO), 5 days (fraction); higher = more cells survive
[1] = compound: CC1=CN2C(=O)C=C(N=C2C(=C1)C(C)NC3=CC=CC=C3)N4CCOCC4 [TGX 221] + O=C(c1cc(Cc2n[nH]c(=O)c3ccccc23)ccc1F)N1CCN(C(=O)C2CC2)CC1 [Olaparib] (partner 8 µM)
Method in brief: (§1)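 Relative viability divides the nuclei count in treated wells by that in vehicle wells. Lung cancer cell lines were seeded in 1536-well plates, dosed by pin tool the next day, and fixed and stained after 5 days in one step with final 0.05% Triton X-100, 1% formaldehyde and 1 ug/ml Hoechst. Dosing was a single drug or a fixed anchor-drug dose plus five library-drug doses (not always all listed) in √10 steps, and values are medians of duplicate plates imaged at 4×.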

[2] = compound: CC1=CN2C(=O)C=C(N=C2C(=C1)C(C)NC3=CC=CC=C3)N4CCOCC4 [TGX 221] + CS(=O)(=O)CCNCc1ccc(-c2ccc3ncnc(Nc4ccc(OCc5cccc(F)c5)c(Cl)c4)c3c2)o1 [Lapatinib] (partner 2 µM)
Method in brief: as §1

[3] = compound: C1=CC=C(C(=C1)C2=CC=C(C=C2)C3=CSC4=C3C(=C(C(=O)N4)C#N)O)O + CS(=O)(=O)N1CCN(Cc2cc3nc(-c4cccc5[nH]ncc45)nc(N4CCOCC4)c3s2)CC1 [Pictilisib] (partner 1 µM)
Method in brief: as §1

[4] = compound: C1=CC=C(C(=C1)C2=CC=C(C=C2)C3=CSC4=C3C(=C(C(=O)N4)C#N)O)O + CC(=O)c1c(C)c2cnc(Nc3ccc(N4CCNCC4)cn3)nc2n(C2CCCC2)c1=O [Palbociclib] (partner 0.5 µM)
Method in brief: as §1

Row | Cell Line | relative viability ([1]; first compound 0.08 µM) | relative viability ([1]; first compound 0.253 µM) | relative viability ([1]; first compound 0.8 µM) | relative viability ([1]; first compound 2.53 µM) | relative viability ([1]; first compound 8 µM) | relative viability ([2]; first compound 0.08 µM) | relative viability ([2]; first compound 0.253 µM) | relative viability ([2]; first compound 0.8 µM) | relative viability ([2]; first compound 2.53 µM) | relative viability ([2]; first compound 8 µM) | relative viability ([3]; first compound 0.253 µM) | relative viability ([3]; first compound 0.8 µM) | relative viability ([3]; first compound 2.53 µM) | relative viability ([3]; first compound 8 µM) | relative viability ([4]; first compound 0.08 µM) | relative viability ([4]; first compound 0.253 µM) | relative viability ([4]; first compound 0.8 µM) | relative viability ([4]; first compound 2.53 µM) | relative viability ([4]; first compound 8 µM) | relative viability ([3]; first compound 0.08 µM)
1 | NCI-H1650 | 0.684 | 0.704 | 0.954 | 0.719 | 0.642 | 0.654 | 0.64 | 0.617 | 0.759 | 0.581 | 0.855 | 0.681 | 0.53 | 0.501 | 0.23 | 0.332 | 0.317 | 0.31 | 0.31 | 
2 | NCI-H1651 | 0.183 | 0.199 | 0.166 | 0.161 | 0.18 | 0.777 | 0.644 | 0.758 | 0.804 | 0.599 | 0.61 | 0.636 | 0.565 | 0.568 | 0.506 | 0.491 | 0.483 | 0.518 | 0.48 | 0.361
3 | NCI-H1666 | 0.751 | 0.748 | 0.754 | 0.727 | 0.774 | 0.648 | 0.654 | 0.695 | 0.618 | 0.683 | 0.572 | 0.404 | 0.29 | 0.405 | 0.63 | 0.669 | 0.637 | 0.641 | 1.02 | 0.321
4 | NCI-H1734 | 0.557 | 0.554 | 0.616 | 0.576 | 0.523 | 0.907 | 1.05 | 1.1 | 1.06 | 0.927 | 0.485 | 0.444 | 0.477 | 0.493 | 0.324 | 0.295 | 0.261 | 0.33 | 0.377 | 0.46
